Biological target: T1, Protease-activated receptor 1 (PAR1) (Homo sapiens, UniProt P25116)
T1 construct: gene F2R; PAR1 purified from 293-PAR1 cell lines
T1 sequence (P25116 42-425): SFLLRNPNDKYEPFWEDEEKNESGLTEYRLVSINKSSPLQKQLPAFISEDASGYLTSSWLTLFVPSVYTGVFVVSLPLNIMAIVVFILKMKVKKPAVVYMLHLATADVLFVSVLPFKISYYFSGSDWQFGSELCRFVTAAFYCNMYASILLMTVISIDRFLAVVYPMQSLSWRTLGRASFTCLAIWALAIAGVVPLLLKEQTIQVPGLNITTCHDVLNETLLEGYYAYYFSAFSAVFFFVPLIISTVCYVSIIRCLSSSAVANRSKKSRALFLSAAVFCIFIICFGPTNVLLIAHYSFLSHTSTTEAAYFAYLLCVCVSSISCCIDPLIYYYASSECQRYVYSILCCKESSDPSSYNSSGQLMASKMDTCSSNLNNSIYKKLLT
Experiment: SPR (Biacore […], PAR1 immobilized on CM5 chip)
Format: binding

- Kd: 23 µM
SMILES: C[C@H]1c2cccc(O)c2C(=O)C2=C(O)[C@]3(O)C(=O)C(C(N)=O)=C(O)[C@@H](N(C)C)[C@@H]3[C@@H](O)[C@@H]21 [Doxycycline]
